Assay results taken from PMC6710338, “Turning a Collagenesis-Inducing Peptide Into a Potent Antibacterial and Antibiofilm Agent Against Multidrug-Resistant Gram-Negative Bacteria” (Frontiers in Microbiology, 2019).
Like-named read-outs stand apart in the source and are kept apart here. Square brackets hold non-standard residues; d marks the D form. Peptide text beside a SMILES is read from it. * marks the point of attachment. Palmitoyl = CCCCCCCCCCCCCCCC(=O)*; βAla = NCCC(=O)O

Legend:
E. coli ATCC 25922 = experiment: MIC, broth microdilution (CLSI), ATCC reference strain; format: cell-based, Escherichia coli
Procedure: (§1) The minimum inhibitory concentration (MIC) of synthetic peptides was determined using the broth microdilution method in cation-adjusted Mueller-Hinton broth (MHB2 – Sigma-Aldrich, St. Louis, MO, United States), according to the recommendations of the Clinical and Laboratory Standards Institute ([CLSI, 2012]), against four reference strains, namely, P. aeruginosa ATCC 27853, E. coli ATCC 25922, S. aureus ATCC 25923 and Enterococcus faecalis ATCC 29212. MIC values of peptide 3.1-PP4 were also determined against MDR clinical isolates of P. aeruginosa (PA002, PA004, Pa3, Pa4), E. coli (Ec1, Ec2, EC001, EC002, EC003) and K. pneumoniae (KP004, KP007, KP010). The peptides were tested in the concentration range of 1–1024 μg/mL. The minimum bactericidal concentration (MBC) was determined as previously reported ([Bessa et al., 2018]). According to CLSI guidelines for antimicrobial susceptibility testing, MIC values were determined for all peptides against ATCC reference strains of two Gram-positive (S. aureus ATCC 25923 and E. faecalis ATCC 29212), and two Gram-negative (P. aeruginosa ATCC 27853 and E. coli ATCC 25922) bacterial species, and are shown in Table 2.

E. faecalis ATCC 29212 = experiment: as above; format: cell-based, Enterococcus faecalis
Procedure: as §1

P. aeruginosa ATCC 27853 = experiment: as above; format: cell-based, Pseudomonas aeruginosa
Procedure: as §1

S. aureus ATCC 25923 = experiment: as above; format: cell-based, Staphylococcus aureus
Procedure: as §1

HFF-1 cells = format: cell-based, human
Procedure: Immortalized human foreskin fibroblasts (HFF-1) were grown as a monolayer from passage number 8–16. For routine maintenance, HFF-1 cells were cultured in Dulbecco’s Modified Eagle Medium (DMEM, from Cell Lines Service) supplemented with 15% fetal bovine serum (FBS, from CLS) and 1% antibiotic/antimycotic solution (100 units/mL of penicillin, 100 μg/mL of streptomycin and 0.25 μg/mL of amphotericin B, from Sigma-Aldrich, St. Louis, MO, United States) at 37°C in an humidified atmosphere with 5% CO2. Cells were harvested by trypsinization [0.25% (w/v) trypsin-EDTA4Na, Sigma-Aldrich, St. Louis, MO, United States] twice a week.
The cytotoxicity of synthetic peptides to HFF-1 cells was evaluated using the standard MTT assay. Briefly, cells were seeded at a density of 8 × 10^4 cells/well onto 96-well plate and incubated at 37°C in a 5% CO2 atmosphere. Cells were allowed to grow for 48 h, and serially diluted peptide solutions (0.78–100 μM) were added to the wells. Then, cells were incubated for 72 h at 37°C, after which wells were washed once with phosphate buffered saline (PBS, Sigma-Aldrich, St. Louis, MO, United States), followed by addition of a 0.45 mg/mL MTT solution to each well. Crystals were allowed to form for 1.5 h. Reaction was stopped by rejecting the medium and addition of dimethylsulfoxide (DMSO, Sigma-Aldrich, St. Louis, MO, United States). Absorbance was read at 570 nm (Biotek PowerWave XS).
At the end of the cytotoxicity assays, the number of viable cells was never below that of initially plated cells. As such, data are represented as peptide concentrations causing 50% growth inhibition (IC50) on HFF-1 cells, rather than as lethal dosis values. IC50 values thus obtained are also included in Table 2.

[1] = E. coli ATCC 25922, broth microdilution in cation-adjusted Mueller-Hinton broth (MHB2), CLSI, range tested 1–1024 μg/mL
[2] = E. faecalis ATCC 29212, broth microdilution in MHB2, CLSI, range tested 1–1024 μg/mL
[3] = P. aeruginosa ATCC 27853, broth microdilution in MHB2, CLSI, range tested 1–1024 μg/mL
[4] = S. aureus ATCC 25923, broth microdilution in MHB2, CLSI, range tested 1–1024 μg/mL

Row | SMILES | MIC (E. coli ATCC 25922; ATCC 25922) | MIC (E. coli ATCC 25922; [1]) | MIC (E. faecalis ATCC 29212; ATCC 29212) | MIC (E. faecalis ATCC 29212; [2]) | MIC (P. aeruginosa ATCC 27853; ATCC 27853) | MIC (P. aeruginosa ATCC 27853; [3]) | MIC (S. aureus ATCC 25923; ATCC 25923) | MIC (S. aureus ATCC 25923; [4]) | IC50 (HFF-1 cells; 72 h) | MIC (E. coli ATCC 25922; E. coli ATCC 25922, broth microdilution in MHB2, CLSI, value in parentheses) | MIC (E. faecalis ATCC 29212; E. faecalis ATCC 29212, broth microdilution in MHB2, CLSI, value in parentheses) | MIC (P. aeruginosa ATCC 27853; P. aeruginosa ATCC 27853, broth microdilution in MHB2, CLSI, value in parentheses) | MIC (S. aureus ATCC 25923; S. aureus ATCC 25923, broth microdilution in MHB2, CLSI, value in parentheses) | IC50 (HFF-1 cells; 50% growth inhibition, MTT, 72 h incubation at 37°C, 0.78–100 μM, absorbance 570 nm, read-out: IC50 ± SEM on HFF-1 cells)
1 | CCCCCCCCCCCCCCCC(=O)N[C@@H](CCCCN)C(=O)N[C@@H](CCCCN)C(=O)N[C@@H](CC(C)C)C(=O)N[C@@H](CC(C)C)C(=O)N[C@@H](CCCCN)C(=O)N[C@@H](Cc1c[nH]c2ccccc12)C(=O)N[C@@H](CC(C)C)C(=O)N[C@@H](CC(C)C)C(=O)N[C@@H](CCCCN)C(=O)N[C@@H](CC(C)C)C(=O)N[C@@H](CC(C)C)C(=O)N[C@@H](CCCCN)C(=O)N[C@H](C(=O)N[C@H](C(=O)N[C@@H](CCCCN)C(=O)N[C@@H](CO)C(N)=O)[C@@H](C)O)[C@@H](C)O [Peptide C16-3.1-PP4] (Palmitoyl-KKLLKWLLKLLKTTKS-NH2) | 29 µM | 64 µg/mL | 30 to 59 µM | 64 to 128 µg/mL | 29 µM | 64 µg/mL | 59 µM | 128 µg/mL | 17.8 ± 0.5 µM |  |  |  |  | 
2 | CCCCCCCCCCCCCCCC(=O)N[C@@H](CCCCN)C(=O)N[C@@H](CCCCN)C(=O)N[C@@H](CC(C)C)C(=O)N[C@@H](CC(C)C)C(=O)N[C@@H](CCCCN)C(=O)N[C@@H](Cc1c[nH]c2ccccc12)C(=O)N[C@@H](CC(C)C)C(=O)N[C@@H](CC(C)C)C(=O)N[C@@H](CCCCN)C(=O)N[C@@H](CC(C)C)C(=O)N[C@@H](CC(C)C)C(N)=O [Peptide C16-3.1] (Palmitoyl-KKLLKWLLKLL-NH2) | 78.4 µM | 128 µg/mL | 256 µg/mL |  | 78.4 µM | 128 µg/mL | > 627 µM | > 1024 µg/mL | 23.4 ± 0.7 µM |  |  |  |  | 
3 | CCCCCCCCCCCCCCCC(=O)N[C@@H](CCCCN)C(=O)N[C@H](C(=O)N[C@H](C(=O)N[C@@H](CCCCN)C(=O)N[C@@H](CO)C(=O)N[C@@H](CCCCN)C(=O)N[C@@H](CCCCN)C(=O)N[C@@H](CC(C)C)C(=O)N[C@@H](CC(C)C)C(=O)N[C@@H](CCCCN)C(=O)N[C@@H](Cc1c[nH]c2ccccc12)C(=O)N[C@@H](CC(C)C)C(=O)N[C@@H](CC(C)C)C(=O)N[C@@H](CCCCN)C(=O)N[C@@H](CC(C)C)C(=O)N[C@@H](CC(C)C)C(N)=O)[C@@H](C)O)[C@@H](C)O [Peptide C16-PP4-3.1] (Palmitoyl-KTTKSKKLLKWLLKLL-NH2) | 15 µM | 32 µg/mL | 29 µM | 64 µg/mL | 29 µM | 64 µg/mL | 29 µM | 64 µg/mL | 4.98 ± 0.08 µM |  |  |  |  | 
4 | C[C@@H](O)[C@H](NC(=O)[C@@H](NC(=O)[C@@H](N)CCCCN)[C@@H](C)O)C(=O)N[C@@H](CCCCN)C(=O)N[C@@H](CO)C(N)=O [PP4, reference compound] (H-KTTKS-NH2) | > 1820 µM |  | > 1820 µM |  | > 1820 µM |  | > 1820 µM |  | > 100 µM |  |  |  |  | 
5 | CC(C)C[C@H](NC(=O)[C@H](CC(C)C)NC(=O)[C@H](CCCCN)NC(=O)[C@H](CC(C)C)NC(=O)[C@H](CC(C)C)NC(=O)[C@H](Cc1c[nH]c2ccccc12)NC(=O)[C@H](CCCCN)NC(=O)[C@H](CC(C)C)NC(=O)[C@H](CC(C)C)NC(=O)[C@H](CCCCN)NC(=O)[C@H](CCCCN)NC(=O)[C@H](CO)NC(=O)[C@H](CCCCN)NC(=O)[C@@H](NC(=O)[C@@H](NC(=O)[C@@H](N)CCCCN)[C@@H](C)O)[C@@H](C)O)C(N)=O [PP4-3.1] (H-KTTKSKKLLKWLLKLL-NH2) | 2 µM |  | 8 µM |  | 1 µM |  | 4 µM |  | 25 ± 2 µM |  |  |  |  | 
6 | CC(C)C[C@H](NC(=O)[C@H](CC(C)C)NC(=O)[C@H](CCCCN)NC(=O)[C@H](CC(C)C)NC(=O)[C@H](CC(C)C)NC(=O)[C@H](Cc1c[nH]c2ccccc12)NC(=O)[C@H](CCCCN)NC(=O)[C@H](CC(C)C)NC(=O)[C@H](CC(C)C)NC(=O)[C@H](CCCCN)NC(=O)[C@@H](N)CCCCN)C(N)=O [Peptide 3.1, reference compound] (H-KKLLKWLLKLL-NH2) |  |  |  |  |  |  |  |  |  | 6 µM | 3 to 6 µM | 3 µM | 3 µM | 50 ± 3 µM
7 | CC(C)C[C@H](NC(=O)[C@H](CC(C)C)NC(=O)[C@H](CCCCN)NC(=O)[C@H](CC(C)C)NC(=O)[C@H](CC(C)C)NC(=O)[C@H](Cc1c[nH]c2ccccc12)NC(=O)[C@H](CCCCN)NC(=O)[C@H](CC(C)C)NC(=O)[C@H](CC(C)C)NC(=O)[C@H](CCCCN)NC(=O)[C@H](CCCCN)NC(=O)CCNC(=O)[C@H](CO)NC(=O)[C@H](CCCCN)NC(=O)[C@@H](NC(=O)[C@@H](NC(=O)[C@@H](N)CCCCN)[C@@H](C)O)[C@@H](C)O)C(N)=O [PP4-β-ala-3.1] (H-KTTKS[βAla]KKLLKWLLKLL-NH2) | 2 µM |  | 4 µM |  | 2 µM |  | 4 µM |  | 24 ± 2 µM |  |  |  |  | 
8 | CCCCCCCCCCCCCCCC(=O)N[C@@H](CCCCN)C(=O)N[C@H](C(=O)N[C@H](C(=O)N[C@@H](CCCCN)C(=O)N[C@@H](CO)C(N)=O)[C@@H](C)O)[C@@H](C)O [Peptide C16-PP4, reference compound] (Palmitoyl-KTTKS-NH2) |  |  |  |  |  |  |  |  | > 100 µM |  |  |  |  | 
